The text below walks through data of PubChem BioAssay AID743330 (NMMLSC, 2014).

Targets include Ras; Cdc42; Rab7; Cdc42 mutant.
What all share (test): GTPase panel EC50 shift with labeled GTP level, profiling panel, mechanism study, biochemical, four GTPases, bead flow cytometry (AID 743330)
Holding throughout (settings): bead-based flow cytometry, fluorescent GTP binding to GTPases
Background: In flow cytometry, cells or beads pass a laser one at a time.

For orientation: EC50 means the concentration at which the effect is half-maximal. On to `CCC1(C)Cc2c(sc(NC(=S)NC(=O)c3ccccc3)c2C(=O)O)CO1` (stereo not given), for which the EC50 at Ras (EC50 at 25 nM fluorescent GTP) amounted to 6 nM; on Ras (EC50 at 100 nM fluorescent GTP), 23 nM; at Cdc42 (EC50 at 100 nM fluorescent GTP) it was 20 nM; on Rab7 (EC50 at 25 nM fluorescent GTP), 8 nM; on Rab7 (EC50 at 100 nM fluorescent GTP), 29 nM; on Cdc42 mutant (EC50 at 25 nM fluorescent GTP), 12 nM. The EC50 at Cdc42 mutant (EC50 at 100 nM fluorescent GTP) came to 27 nM.
`CC1(C)Cc2c(sc(NC(=S)NC(=O)c3ccc(F)cc3)c2C(=O)O)CO1`: the EC50 at Ras (EC50 at 25 nM fluorescent GTP) was determined as 66 nM; on Ras (EC50 at 100 nM fluorescent GTP) it was 444 nM; at Cdc42 (EC50 at 25 nM fluorescent GTP) it was 248 nM; on Cdc42 (EC50 at 100 nM fluorescent GTP), 1040 nM; on Rab7 (EC50 at 25 nM fluorescent GTP), 55 nM; on Rab7 (EC50 at 100 nM fluorescent GTP), 479 nM. Moreover, the EC50 came to 120 nM at Cdc42 mutant (EC50 at 25 nM fluorescent GTP) and 977 nM on Cdc42 mutant (EC50 at 100 nM fluorescent GTP).
